Measurements: paper PMC11226696, “Ergothioneine promotes longevity and healthy aging in male mice” (GeroScience, 2024)

Biological target: T1, recombinant human histamine N-methyltransferase (rhHNMT) (Homo sapiens, UniProt P50135)
T1 construct: gene HNMT
Test: recombinant enzyme assay, LC-MS/MS of histamine and methylhistamine; Lineweaver-Burk analysis
Type: biochemical

T1 sequence (P50135 whole entry): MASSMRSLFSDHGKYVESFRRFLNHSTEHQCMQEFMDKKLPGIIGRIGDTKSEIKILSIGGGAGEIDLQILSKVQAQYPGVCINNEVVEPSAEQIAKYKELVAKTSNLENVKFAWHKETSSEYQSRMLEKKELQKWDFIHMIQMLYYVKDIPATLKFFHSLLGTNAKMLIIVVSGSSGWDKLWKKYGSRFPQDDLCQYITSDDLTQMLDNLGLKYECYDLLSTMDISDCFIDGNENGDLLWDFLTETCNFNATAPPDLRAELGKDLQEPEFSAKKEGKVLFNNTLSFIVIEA

With `C[N+](C)(C)[C@@H](Cc1c[nH]c(=S)[nH]1)C(=O)[O-]` [ERGO, ergothioneine] the “recombinant enzyme assay, LC-MS/MS of histamine and methylhistamine; Lineweaver-” value was “Lineweaver–Burk analysis revealed that ERGO competitively inhibited rhHNMT against histamine (Fig. 6c)”.
